Assay results taken from patent publication US20060093575A1, “Oxaliplatin anti-resistance agent” (CENTRE NATIONAL DE LA RECHERCHE SCIENTIFIQUE, priority 2002, published 2006).
Where two headings read alike, the source gives them in different places.

What was measured:
[1] = tested on: SW620/R; experiment: colorimetric cell growth test, medication incubated 48 hours; details: for relative resistance (IC50 resistant clone / IC50 parental clone): SW620/R versus SW620; for crossed resistance: SW620R versus SW620; for IC50: read-out: IC50 (concentration that reduces cell growth by 50%)
[2] = tested on: SW620; experiment: as above; details: for relative resistance (IC50 resistant clone / IC50 parental clone): SW620 (parental clone); for IC50: read-out: IC50 (concentration that reduces cell growth by 50%)
[3] = tested on: HCT116; experiment: as above; details: for relative resistance (IC50 resistant clone / IC50 parental clone): HCT116 (parental clone); for IC50: read-out: IC50 (concentration that reduces cell growth by 50%)
[4] = tested on: HCT116/R; experiment: as above; details: for relative resistance (IC50 resistant clone / IC50 parental clone): HCT116/R versus HCT116; for crossed resistance: HCT116R versus HCT116; for IC50: read-out: IC50 (concentration that reduces cell growth by 50%)
[5] = tested on: Bax in HCT116/Rev1 cells; experiment: Bax activation, active-conformation antibody, flow cytometry; format: cell-based; details: HCT116/Rev1, 12, 24 or 48 hours with 15 μM
Method: (§1) Legend to FIGS. 4A to 4C: Detection of activation of Bax by an antibody specific for the active conformation of Bax and intracellular analysis by flow cytometry. The cells are fixed, permeabilized and then incubated with the antibody specific for the active conformation of […]. Finally visualization is carried out by incubation with the secondary antibody coupled with FITC. The labeling of untreated cells is shown by the curve in fine black line. That of treated cells (12, 24 or 48 hours with 15 μM oxaliplatin) is shown by the curves in thick black line. The appearance of strongly labeled cells (curves in thick black line shifted to the right) gives evidence of activation of Bax.

[6] = tested on: Bax in HCT116/R1 cells; experiment: as above; format: cell-based; details: HCT116/R1, 12, 24 or 48 hours with 15 μM, compared to HCT116/S
Method: as §1

[7] = tested on: Bax protein in HCT116R cells; experiment: detection of Bax by Western blot; format: cell-based; details: 15 μM for 48 hours (or 50 μM for 24 hours)
Method: (§2) Legend to FIG. 1: detection of Bax by Western blot in the absence of, or under the effect of treatment, with oxaliplatin in the HCT116 model. The cells are not treated or treated with oxaliplatin at a level of 15 μM for 48 hours (or 50 μM for 24 hours) before preparation of cell lysates. Tubulin expression is used as a control of equivalent protein deposits.

[8] = tested on: Bax protein in HCT116 cells; experiment: detection of Bax by Western blot; format: cell-based; details: HCT116, 15 μM for 48 hours (or 50 μM for 24 hours)
Method: as §2

[9] = tested on: HCT116/Rev1; experiment: oxaliplatin sensitivity of variant line versus HCT116/S; format: cell-based; details: HCT116/Rev1, after culture without oxaliplatin for 6 months
Source text: the variant HCT116/Rev1 derived from the line HCT116/R1 after culture in the absence of oxaliplatin for 6 months.

[10] = tested on: SW620R; experiment: degree of apoptosis by cytofluorometry, annexine V labeling; format: cell-based; details: treated 48 hours
Method: (§3) A control is performed without contact with any medication (Co). The degree of apoptosis is then determined by cytofluorometry using labeling by annexine V. Independently, activation of the apoptosis effector protein Caspase 3 was evaluated in cells HCT116 and HCT116R after treatment for 24 hours with oxaliplatin in order to validate the entry into apoptosis of the cells as observed by cytofluorometry (FIG. 2C).

[11] = tested on: HCT116R; details: treated 48 hours
Method: A control is performed without contact with any medication (Co).

[12] = tested on: Bax in HCT116/Rev1 cells; experiment: overall level of Bax expression on exposure to oxaliplatin; format: cell-based
Source text: (§4) The overall level of Bax expression is equivalent for the lines HCT116/S, HCT116/R1 and HCT116/Rev1.

[13] = tested on: Bax in HCT116/S cells; experiment: as above; format: cell-based
Source text: as §4

[14] = tested on: Bax in HCT116/R1 cells; experiment: as above; format: cell-based
Source text: as §4

[15] = tested on: Bak in HCT116/R1 cells; experiment: Bak activation, active-conformation antibody, flow cytometry; format: cell-based; details: HCT116/R1, 12, 24 or 48 hours with 15 μM
Method: (§5) Legend to FIGS. 5A to 5E: Detection of activation of Bak by an antibody specific for the active conformation of Bak and intracellular analysis by flow cytometry. The cells are fixed, made permeable and then incubated with the antibody specific for the active conformation of […]. Finally visualization is carried out by incubation with the secondary antibody coupled to FITC. Labeling of untreated cells is shown by the curve in the fine black line. That of treated cells (12, 24 or 48 hours with 15 μM oxaliplatin) is shown by the curves in the thick black line. The appearance of strongly labeled cells (curves in the thick black line shifted to the right) gives evidence of activation of Bak. This experiment was reproduced two times.

[16] = tested on: Bak in HCT116/Rev1 cells; experiment: as above; format: cell-based; details: HCT116/Rev1, 12, 24 or 48 hours with 15 μM
Method: as §5

[17] = tested on: Bak in HCT116/Rev2 cells; experiment: as above; format: cell-based; details: HCT116/Rev2, 12, 24 or 48 hours with 15 μM
Method: as §5

[18] = tested on: Bak in HCT116/R2 cells; experiment: as above; format: cell-based; details: HCT116/R2, 12, 24 or 48 hours with 15 μM
Method: as §5

[19] = tested on: HCT116/Rev2; experiment: oxaliplatin resistance of variant line versus HCT116/S; format: cell-based; details: HCT116/Rev2, after culture without oxaliplatin for 15 months
Source text: the variant HCT116/Rev2 derived from the line HCT116/R2 after culture in the absence of oxaliplatin for 15 months. This variant is characterized by an only partial loss of oxaliplatin resistance (variant HCT116/Rev2 is 16 times more resistant than line HCT116/S).

[20] = tested on: Caspase 3 in HCT116R cells; experiment: activation of apoptosis effector protein Caspase 3; format: cell-based; details: treated 24 hours
Method: as §3

[21] = tested on: HCT116/R1; experiment: oxaliplatin resistance of variant line versus HCT116/S; format: cell-based; details: HCT116/R1 clone
Source text: the line HCT116/R1 derived from the line HCT116 after acquisition of oxaliplatin resistance and cloning (corresponding to a clone 30 times more resistant than the sensitive reference line HCT116/S),

[22] = tested on: HCT116R; experiment: degree of apoptosis by cytofluorometry, Mitocapture dye; format: cell-based; details: treated 24 hours
Method: (§6) Legend to FIGS. 3A and 3B: cells HCT116 (and R) and SW620 (and R) are treated, prior to determination of the degree of apoptosis, for 24 hours by arsenic trioxide (As), lonidamine (LND) or are left without treatment (control, Co). The degree of apoptosis is then determined by cytofluorometry after labeling with the dye “Mitocapture” which fluoresces differently in apoptotic cells and intact cells (with relation to mitochondrial integrity).

[23] = tested on: SW620R; experiment: as above; format: cell-based; details: treated 24 hours
Method: as §6

[24] = SW620/R, 48 hours, average ± SD, at least three experiments
[25] = SW620, 48 hours, average ± SD, at least three experiments
[26] = HCT116, 48 hours, average ± SD, at least three experiments
[27] = HCT116/R, 48 hours, average ± SD, at least three experiments

N.N.[Cl][Pt][Cl] [Cisplatin]
relative resistance (IC50 resistant clone / IC50 parental clone) [1]: (1.4) | crossed resistance [1]: very little or no crossed resistance | IC50 [1, 24]: 9 ± 1.7 µM | relative resistance (IC50 resistant clone / IC50 parental clone) [2]: (1.0) | IC50 [2, 25]: 7 ± 1.7 µM | relative resistance (IC50 resistant clone / IC50 parental clone) [3]: (1.0) | IC50 [3, 26]: 4.7 ± 1.8 µM | relative resistance (IC50 resistant clone / IC50 parental clone) [4]: (2.9) | crossed resistance [4]: very little or no crossed resistance | IC50 [4, 27]: 13.4 ± 6.6 µM

CCc1c2c(nc3ccc(OC(=O)N4CCC(N5CCCCC5)CC4)cc13)-c1cc3c(c(=O)n1C2)COC(=O)[C@]3(O)CC [Irinotecan]
IC50 ([1]; Homo sapiens, SW-620, 48 h): 11.7 ± 2.5 µM | crossed resistance [1]: very little or no crossed resistance | IC50 ([2]; Homo sapiens, SW-620, 48 h): 23.3 ± 0.6 µM | IC50 ([3]; Homo sapiens, HCT-116, 48 h): 7.7 ± 3.8 µM | crossed resistance [4]: very little or no crossed resistance | IC50 ([4]; Homo sapiens, HCT-116, 48 h): 9.5 ± 4.2 µM

O=C1[O][Pt]2([NH][C@@H]3CCCC[C@H]3[NH]2)[O]C1=O [Oxaliplatin, [(1R, 2R)-1,2-cyclohexanediamine-N,N′] [oxalato (2-)-O,O′] platinum]
relative resistance (IC50 resistant clone / IC50 parental clone) [1]: 18.3 | times more resistant than the original line ([1]; SW620R versus SW620, as stated in text): 20 times | IC50 [1, 24]: 62.3 ± 12.9 µM | relative resistance (IC50 resistant clone / IC50 parental clone) [2]: 1.0 | IC50 [2, 25]: 3.4 ± 0.6 µM | activation of Bax [5]: return to early activation of Bax | activation of Bax [6]: reduced and delayed | relative resistance (IC50 resistant clone / IC50 parental clone) [3]: 1.0 | IC50 [3, 26]: 0.32 ± 0.08 µM | Bax protein expression (Western blot) [7]: does not express the Bax protein | Bax protein expression (Western blot) [8]: over-expresses it | oxaliplatin sensitivity [9]: comparable to HCT116/S | induction of apoptosis (annexine V) [10]: resist induction of apoptosis | induction of apoptosis (annexine V) [11]: resist induction of apoptosis | relative resistance (IC50 resistant clone / IC50 parental clone) [4]: 68.4 | IC50 [4, 27]: 21.9 ± 6.3 µM | overall level of Bax expression [12]: induces an over-expression of Bax | overall level of Bax expression [13]: induces an over-expression of Bax | overall level of Bax expression [14]: induces an over-expression of Bax | activation of Bak [15]: delayed | activation of Bak [16]: repeat the level of activation of Bak of the sensitive line HCT116/S | activation of Bak [17]: repeat the level of activation of Bak of the sensitive line HCT116/S | activation of Bak [18]: delayed | times more resistant than line HCT116/S [19]: 16 times | activation of caspase 3 [20]: lack of activation of caspase 3 | times more resistant than sensitive reference line HCT116/S [21]: 30 times

O=C(O)c1nn(Cc2ccc(Cl)cc2Cl)c2ccccc12 [lonidamine]
apoptotic induction (Mitocapture) [22]: resistant to apoptotic induction | apoptotic induction (Mitocapture) [23]: resistant to apoptotic induction
